Our source for the EC50 and Kd values is PMC2156105 (The Journal of biological chemistry, 2007).

Assay [1] addresses AMP-activated protein kinase (AMPK), native rat liver αβγ complex (γ1 subunit) (Rattus norvegicus, UniProt P80385). In words: kinase activity assay of purified rat liver AMPK. The assay is classed as biochemical.
Assay [2] addresses AMPK γ2 subunit (Bateman domains) (Homo sapiens, UniProt Q9UGJ0). Kind of assay: scintillation proximity assay, displacement of [3H]AMP by unlabelled AMP. The assay is classed as binding.

Sequence of AMP-activated protein kinase (AMPK), native rat liver αβγ complex (γ1 subunit) (P80385 whole entry, the tested form may be a part): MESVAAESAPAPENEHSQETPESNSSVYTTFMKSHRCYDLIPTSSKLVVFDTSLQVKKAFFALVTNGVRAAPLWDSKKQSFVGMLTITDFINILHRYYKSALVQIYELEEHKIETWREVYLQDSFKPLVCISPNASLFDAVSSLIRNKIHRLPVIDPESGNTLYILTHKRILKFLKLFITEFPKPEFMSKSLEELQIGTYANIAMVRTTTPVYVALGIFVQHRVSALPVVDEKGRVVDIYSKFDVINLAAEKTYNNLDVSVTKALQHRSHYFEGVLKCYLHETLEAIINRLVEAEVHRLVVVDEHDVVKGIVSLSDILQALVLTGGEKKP
Sequence of AMP-activated protein kinase (AMPK), native rat liver αβγ complex (γ1 subunit) (P54645 whole entry partner, the tested form may be a part): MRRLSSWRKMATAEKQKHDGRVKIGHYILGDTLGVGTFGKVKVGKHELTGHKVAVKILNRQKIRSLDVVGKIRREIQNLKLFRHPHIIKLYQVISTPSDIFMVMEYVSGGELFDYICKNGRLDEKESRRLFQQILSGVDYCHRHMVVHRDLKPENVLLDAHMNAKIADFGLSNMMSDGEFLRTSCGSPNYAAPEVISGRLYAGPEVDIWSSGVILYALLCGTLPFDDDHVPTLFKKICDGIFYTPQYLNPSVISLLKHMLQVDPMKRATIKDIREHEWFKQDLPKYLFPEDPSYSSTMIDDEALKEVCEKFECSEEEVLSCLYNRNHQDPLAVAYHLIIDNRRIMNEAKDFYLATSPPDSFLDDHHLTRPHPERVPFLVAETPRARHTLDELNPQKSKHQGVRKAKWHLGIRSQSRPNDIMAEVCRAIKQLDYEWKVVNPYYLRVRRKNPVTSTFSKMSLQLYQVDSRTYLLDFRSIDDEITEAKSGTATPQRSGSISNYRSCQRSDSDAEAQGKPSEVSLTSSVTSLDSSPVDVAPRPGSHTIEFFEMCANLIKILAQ
Sequence of AMP-activated protein kinase (AMPK), native rat liver αβγ complex (γ1 subunit) (Q09137 whole entry partner, the tested form may be a part): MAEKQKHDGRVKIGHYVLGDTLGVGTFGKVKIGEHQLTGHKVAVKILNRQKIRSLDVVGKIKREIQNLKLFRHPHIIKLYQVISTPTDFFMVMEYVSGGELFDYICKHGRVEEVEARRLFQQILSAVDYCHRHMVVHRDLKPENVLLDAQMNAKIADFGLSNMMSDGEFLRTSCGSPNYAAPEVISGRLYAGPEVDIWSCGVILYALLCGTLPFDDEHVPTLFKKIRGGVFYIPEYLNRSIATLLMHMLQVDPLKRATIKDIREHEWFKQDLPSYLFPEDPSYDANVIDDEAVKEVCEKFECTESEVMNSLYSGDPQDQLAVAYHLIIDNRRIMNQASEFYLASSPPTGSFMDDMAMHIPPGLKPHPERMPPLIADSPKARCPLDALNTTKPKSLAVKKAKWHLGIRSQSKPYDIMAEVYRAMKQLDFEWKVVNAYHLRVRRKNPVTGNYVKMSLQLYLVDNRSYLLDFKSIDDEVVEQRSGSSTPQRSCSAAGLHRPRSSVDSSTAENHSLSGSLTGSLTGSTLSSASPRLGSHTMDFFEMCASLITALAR
Sequence of AMP-activated protein kinase (AMPK), native rat liver αβγ complex (γ1 subunit) (P80386 2-270 partner): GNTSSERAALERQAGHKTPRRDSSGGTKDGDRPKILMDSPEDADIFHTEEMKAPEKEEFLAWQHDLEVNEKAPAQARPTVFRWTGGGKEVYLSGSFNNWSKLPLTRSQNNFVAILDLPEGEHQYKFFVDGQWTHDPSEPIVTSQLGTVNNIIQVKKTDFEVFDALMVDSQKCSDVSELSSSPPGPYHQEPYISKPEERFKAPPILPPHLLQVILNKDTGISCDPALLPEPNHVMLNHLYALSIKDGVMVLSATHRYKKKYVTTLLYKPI
Sequence of AMPK γ2 subunit (Bateman domains) (Q9UGJ0 275-562 limits assumed): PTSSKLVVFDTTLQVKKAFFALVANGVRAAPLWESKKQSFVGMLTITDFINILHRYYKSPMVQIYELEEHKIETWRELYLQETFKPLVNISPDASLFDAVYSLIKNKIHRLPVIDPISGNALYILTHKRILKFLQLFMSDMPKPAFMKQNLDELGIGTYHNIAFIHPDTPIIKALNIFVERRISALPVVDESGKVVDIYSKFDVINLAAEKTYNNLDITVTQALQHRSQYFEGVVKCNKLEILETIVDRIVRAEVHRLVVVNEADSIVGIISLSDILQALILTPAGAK

Take `Nc1ncnc2c1ncn2[C@@H]1O[C@H](COP(=O)(O)O)[C@@H](O)[C@H]1O` [AMP]: the EC50 in assay [1] stood at 6 ± 3 µM. Further, in assay [2], the Kd is 80 ± 15 µM.
